From article PMC6934663, “Genomic and functional gene studies suggest a key role of beta-carotene oxygenase 1 like (bco1l) gene in salmon flesh color” (Scientific Reports, 2019)

Molecular target: T1, Bco1l (Salmo salar, UniProt A0A1S2X8G0)
T1 construct: the ssa11 copy is truncated), expressed in carotenoid-producing E. coli XL1-Blue, 528 aa
T1 sequence (A0A1S2X8G0 1-528): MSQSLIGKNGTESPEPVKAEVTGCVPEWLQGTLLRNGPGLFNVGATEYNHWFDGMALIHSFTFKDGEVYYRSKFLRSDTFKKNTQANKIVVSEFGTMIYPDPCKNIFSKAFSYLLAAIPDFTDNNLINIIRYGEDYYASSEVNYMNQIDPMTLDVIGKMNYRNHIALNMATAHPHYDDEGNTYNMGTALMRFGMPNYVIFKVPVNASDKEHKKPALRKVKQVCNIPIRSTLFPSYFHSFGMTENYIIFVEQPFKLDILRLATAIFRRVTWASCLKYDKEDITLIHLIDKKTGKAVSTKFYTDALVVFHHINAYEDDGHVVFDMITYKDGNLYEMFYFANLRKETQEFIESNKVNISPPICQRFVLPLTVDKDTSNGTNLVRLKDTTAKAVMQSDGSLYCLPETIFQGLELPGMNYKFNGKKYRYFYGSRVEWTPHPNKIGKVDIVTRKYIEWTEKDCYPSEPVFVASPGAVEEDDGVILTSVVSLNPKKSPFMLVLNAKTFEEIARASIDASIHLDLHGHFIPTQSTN
Experiment: HPLC of cleavage products in beta-carotene-producing E. coli
Assay type: cell-based
Conditions: E. coli co-expression, IPTG 0.2 mM, 16 h at 25 °C in darkness; 15,15' oxidative cleavage

## CC1=C(/C=C/C(C)=C/C=C/C(C)=C/C=C/C=C(C)/C=C/C=C(C)/C=C/C2=C(C)CCCC2(C)C)C(C)(C)CCC1 [beta-carotene]
  HPLC of cleavage products in beta-carotene-producing E. coli: The results showed that Bco1l cleaved beta-carotene (Fig. 6A).
